Patent publication US12351574B2, “Selective ligands for modulation of GIRK channels” (Northeastern University, priority 2018, dated 2025)

Target: T1, GIRK heteromers (UniProt P48542+P48549)
T1 construct: expressed in transfected cells; HEK293-T in the methods
T1 sequence (P48549 1-501): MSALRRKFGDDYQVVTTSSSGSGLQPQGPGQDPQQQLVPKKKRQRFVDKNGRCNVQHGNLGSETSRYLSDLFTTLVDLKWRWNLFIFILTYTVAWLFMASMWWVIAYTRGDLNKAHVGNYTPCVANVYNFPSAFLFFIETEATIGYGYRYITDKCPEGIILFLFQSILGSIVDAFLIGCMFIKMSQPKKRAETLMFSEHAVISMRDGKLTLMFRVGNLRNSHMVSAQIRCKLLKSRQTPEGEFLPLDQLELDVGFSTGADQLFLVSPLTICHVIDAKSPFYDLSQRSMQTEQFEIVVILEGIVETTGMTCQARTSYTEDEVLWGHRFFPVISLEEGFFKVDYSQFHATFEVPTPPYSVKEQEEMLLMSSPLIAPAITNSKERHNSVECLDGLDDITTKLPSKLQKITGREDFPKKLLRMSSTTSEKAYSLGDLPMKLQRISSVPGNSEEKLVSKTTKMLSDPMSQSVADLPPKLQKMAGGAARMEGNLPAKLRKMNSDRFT
T1 sequence (P48542 1-425): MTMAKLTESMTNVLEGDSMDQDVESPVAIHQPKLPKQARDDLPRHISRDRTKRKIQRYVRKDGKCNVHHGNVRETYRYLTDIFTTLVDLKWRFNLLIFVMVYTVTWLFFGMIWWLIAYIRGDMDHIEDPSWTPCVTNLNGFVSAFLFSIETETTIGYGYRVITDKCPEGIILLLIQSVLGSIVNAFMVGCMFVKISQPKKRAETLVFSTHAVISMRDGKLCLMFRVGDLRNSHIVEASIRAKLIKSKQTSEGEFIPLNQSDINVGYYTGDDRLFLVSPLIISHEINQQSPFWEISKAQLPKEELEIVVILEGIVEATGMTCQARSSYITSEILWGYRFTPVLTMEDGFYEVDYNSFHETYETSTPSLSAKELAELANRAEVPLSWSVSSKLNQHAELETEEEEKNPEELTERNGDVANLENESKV
Assay: concentration-response after PIP2 hydrolysis by light-sensitive phosphatase, whole-cell patch-clamp in mammalian cells
Type: cell-based
Settings: stimulation of light-sensitive phosphatase, FIGS. 20A-20C
Source text: The MD simulations indicated a PIP2-dependent activation effect by ML297 and the GAT compounds in GIRK heteromers leading to channel gating. To experimentally test the role of PIP2 in channel activation by ML297 and the GAT compounds, the inventors proceeded to first manipulate PIP2 levels by inducing a light-sensitive phosphatase in whole-cell patch-clamp experiments in mammalian cells and to examine the effects of the activating compounds (FIGS. 20A-20C).
Light-activated phosphatase system: The inventors used a light-activated phosphatase system to dephosphorylate PIP2 that is comprised of two fusion proteins: CRY2-5-ptaseOCRL contains the photolyase domain of cryptochrome 2 (CRY2) and the inositol 5-phosphatase domain of the […] oculocerebrorenal syndrome protein (OCRL), while CIBN-CAAX contains the CRY2 binding domain (CIBN) and a C-terminal CAAX box for plasma membrane targeting. When CRY2-5-ptaseOCRL and CIBN-CAAX fusion proteins are co-expressed and exposed to blue light between 458-488 nm, the 5-ptase is localized to the plasma membrane, where it dephosphorylates PIP2. […] The 5-ptaseOCRL system was activated using a 460 nm LED (Luminus) that was focused on the cells through the objective lens of an inverted microscope (Nikon).
Patch-clamp recording: Whole-cell currents were recorded with an Axopatch 200B amplifier (Molecular Devices) controlled via a USB-interface (National Instruments) using WinWCP software (University of Strathclyde). Currents were acquired through a lowpass Bessel filter at 2 kHz and were digitized at 10 kHz. […] Cells for study were selected based on GFP expression using an epifluorescence microscope (Nikon). […] The barium-sensitive component of the current, observed when cells were perfused with the high-K^+ buffer, was analyzed and was determined by perfusing 5 mM BaCl2 in the high-K^+ buffer at the end of each experiment. […]

Row | decrease in potency following hydrolysis of PIP2 [fold] | Structure (SMILES)
1 | ~2 | Cc1cc(NC(=O)Nc2ccc(Br)s2)n(-c2ccccc2)n1 [GAT1508, 1-(5-bromothiophen-2-yl)-3-(3-methyl-1-phenyl-1H-pyrazol-5-yl)urea]
2 | ~3.7 | Cc1cc(NC(=O)Nc2ccc(C)s2)n(-c2ccccc2)n1 [GAT1521, 1-(3-methyl-1-phenyl-1H-pyrazol-5-yl)-3-(5-methylthiophen-2-yl)urea]
3 | ~3 | Cc1cc(NC(=O)Nc2ccc(F)c(F)c2)n(-c2ccccc2)n1 [ML297, reference compound]
